The values below come from publication PMC7816587 (Food and Chemical Toxicology, 2021).

The nature of this series: Pharmacokinetic interactions between QPD and lopinavir in rats. The conditions noted are these: male, Sprague-Dawley, rat, plasma, po, 160 mg/kg. It counts as in vivo.

In the case of `Cc1cccc(C)c1OCC(=O)N[C@@H](Cc1ccccc1)[C@@H](O)C[C@H](Cc1ccccc1)NC(=O)[C@H](C(C)C)N1CCCNC1=O` [lopinavir], the Tmax (as a rule, the time at which the peak concentration occurs) is 8 h. Also, the AUC(0-inf) – broadly, total exposure, with the tail of the curve extrapolated – (AUC(0-inf) of lopinavir, rats, water + lopinavir 160 mg/kg i.g. (control group)) was determined as 6090 ng·h/mL. Moreover, where the note is “t1/2 of lopinavir, rats, water + lopinavir 160 mg/kg i.g. (control group)”, the half-life (in general, the time in which the quantity being followed falls by half) was 1.9 h.
